These results are taken from patent publication US20070166547A1, “Use of a layer consisting of hydrophobic linear, or two-dimensional polycyclic aromatics as a barrier layer or an encapsulation and electric components constructed with a layer of this type and comprising organic polymers” (priority 2003, published 2007).

The test system of data set [1] is adenosine-sensitive receptors of thrombocytes. The data set can be described thus: ADP-induced aggregation of thrombocytes in vitro (Born method). Format: cell-based, rabbit. To be noted: 3 min incubation, ADP 10^−5 M. As for the experimental part: The compounds according to the invention were studied for the effect of aggregation of thrombocytes induced by a preliminary introduction of a solution of an aggregation inductor with a competing introduction of the compounds according to the invention.
The aggregation of thrombocytes was studied by the Born method based on determination of the changes in the optical density of plasma enriched with thrombocytes after its incubation with an aggregation inductor.
Adenozinediphosphoric acid (ADP) was selected as an aggregation inductor, which in fact is an aggregation generator. Use was made of a sample (registration number 885) of the Sigma Diagnostics Company (USA) in final concentration of 10^−5 M.
The experiments were carried out on male rabbits of the “Chinchilla” breed having a mass of 2.7±0.3 kg. 18-24 hours prior to the experiment they were deprived of feed while preserving free access to water.
To obtain plasma enriched with thrombocytes, blood was taken from a cut of a marginal vein of the rabbit ear, the sample was stabilized with 3.8% of sodium citrate solution in a ratio of 9:1 and centrifuged at 200 g (1000 rev/min) for 10 minutes. The top supernatant layer enriched with thrombocytes was transferred by an automatic dropper into a silicone test tube and kept at 37° C. The plasma enriched with thrombocytes contained, on the average, […]. If this content exceeded the specified 3×10^8 blood platelets in 1 liter, this sample was diluted to the necessary concentration with plasma deprived of thrombocytes, which was obtained by centrifuging blood at 650 g during 10 minutes.
The measurements of the optical density of the samples were made on two-channel aggregometer of the “Chronolog” Company (USA). A flask containing 490 mkl of plasma rich with thrombocytes was placed in a device, into which a magnetic agitator covered with Teflon was lowered. The index of maximum amplitude of aggregation (MA) in percent of a fall of the plasma optical density under effect of the aggregation inductor was recorded. The control index MA of plasma was compared with the MA of plasma incubated for 3 minutes with different concentrations of the compounds: from 10^−3 to 10^−7 in vitro experiments or with plasma obtained 15, 30, 60 and 120 minutes after intravenous administration of different doses of the compounds in vivo experiments.
The process of aggregation of thrombocytes was recorded with the help of a computer; on the monitor screen the there were depicted curves reflecting changes of the optical density of the plasma enriched which was taken as a standard 100% compared to the optical density of the non-thrombocyte plasma taken for 0% content of thrombocytes.
Under in vitro conditions a flask was filled with blood plasma enriched with thrombocytes, to which an aggregation inductor ADP was added at a concentration of 10^−5 M, incubated for 3 minutes, and then the compounds according to the invention were introduced directly into the flask. Their action by aggregation of thrombocytes was studied after 3-minute incubation in a wide range of concentrations from 10^−3 to 10^−7 M to minimum concentration of 10^−7 M not inducing no effect of suppressing the aggregation.

Data set [2] is described as follows: Polarographic study of electrochemical reduction (electrochemical activity). Conditions: for i, mkA (polarographic wave current) / −E1/2, V (half-wave potential vs SCE): 37° C., forward trace, average for the group; for i, mkA (polarographic wave current): 9·10^−4 M. Format: physicochemical. As to the method: The study was carried out on a general-purpose polarograph PU-1 with a two-coordinate recorder of the “LKD” type using a three-electrode thermostatically controlled polarographic cell and mercury dripping electrode (MDE) with forced separation of the drop and a dropping period of 0.5 second. A platinum wire was used as an auxiliary electrode and a saturated calomel electrode (SCE) was used as a control electrode.
2.0% solutions of sodium chloride having pH 7.0, 7.2, 7.4, 7.6 were used as a background; the pH values of the background solution were corrected by a solution of sodium hydroxide. The polarographic cell was filled with 5.0 ml of the background solution and for 5 minutes was purged with nitrogen for removing the dissolved oxygen. Then 0.5 ml of solution of the studied substance was added to the background solution, and the polarogram was recorded as a polarographic wave. The concentration of the compounds in the polarographic cell was 9·10^−4 M.
The pH was measured on the pH-meter with an accuracy of ±0.05 pH units. The polarographic measurements were carried out at a temperature of 37° C. The recording of polarograms of the investigated materials was effected under conditions of DC current at a scanning rate of the potential 10.0 mV/s with a active scanning stroke from a potential 0 to −0.5 V and sweep retrace from a −0.5 V to 0. The electric-current sensitivity was 5.0 mkA. The scale by the coordinate of the potentials was 50.0 mV/cm. The values of potentials of the half-wave E1/2 of the investigated materials are given with respect to the SCE potential.
The polarogram parameters such as a limiting current ilim and E1/2 were determined by the graphic method. The number of electrons participating in the reaction was calculated on the basis of the analysis of the polarographic wave using the Geirovsky-Ilkovich equation.

For data set [3], the system named is thymus. As to the kind of experiment: Morphine abstinence model: thymus condition. Conditions: morphine alone. The data set is classed as in vivo, rats. As to the method:
The effect of the compounds according to the invention on the condition of the thymus of the rats was also investigated: a control group, an experimental group of morphinized animals and an experimental group of animals were first morphinized and then injected with the compounds according to the invention. The experiment was carried out similarly to that described above.

Data set [4] relates to synthase of nitrogen oxide (NOC). As to the kind of experiment: Morphine abstinence model: activity of synthase of nitrogen oxide (radiometric, [3H]L-citrulline). The data set is classed as in vivo, rats Wistar. Conditions: morphine alone.

On to `Nc1ncnc2c(=O)n([C@@H]3O[C@H](CO)[C@@H](O)[C@H]3O)[nH]c(=O)c12.[Na]` [Compound 31, sodium salt of 4-amino-7-(β-D-ribofuranosile)pyrimido[4,5-d]-6H-pyridazine-5,8-dione], for which the “MA - fall of optical density of plasma, % to the standard” value (shortened to “MA - fall … % to the standard”) in data set [1] (10^−3 M) came out at 44.9 ± 2.3 %; in data set [1] (10^−4 M), 46.7 ± 2.2 %; in data set [1] (10^−5 M) it was 39.9 ± 2.1 %. Moreover, the “MA - drop of optical density, % compared to control” value (“MA - drop of optical density, %” for short) in data set [1] (10^−6 M) is on record as 47.5 ± 1.7 %; in data set [1] (10^−7 M), 49.5 ± 1.2%.
With “sodium salt of 5-amino-2-(CP(β-D-ribofuranosile)benzo[d]-3H-pyridazine-1,4-dione [Compound 10]”, the “number of electrons participating in the reduction” value in data set [2] (calculated with the Geirovsky-Ilkovich equation) is listed as 4.09. Also, the “i, mkA (polarographic wave current)” value in data set [2] (pH 7.0) turned out to be 0.23 ± 0.03 mkA; in data set [2] (pH 7.2), 0.30 ± 0.01 mkA; in data set [2] (pH 7.4) it was 0.29 ± 0.02 mkA; in data set [2] (pH 7.6) it was 0.31 ± 0.02 mkA. The “−E1/2, V (half-wave potential vs SCE)” value in data set [2] (pH 7.0) turned out to be 0.092 ± 0.02 V; in data set [2] (pH 7.2), 0.09 ± 0.01 V; in data set [2] (pH 7.4) it was 0.092 ± 0.02 V; in data set [2] (pH 7.6), 0.09 ± 0.01 V. Further, the “half-wave potential more positive on reverse stroke than on forward stroke” value in data set [2] (reverse stroke vs forward stroke) amounted to 30.0 mV. For the same compound, the “MA - fall … % to the standard” value in data set [1] (10^−3 M) was determined as 46.2 ± 2.7 %; in data set [1] (10^−4 M), 48.7 ± 2.4 %; in data set [1] (10^−5 M), 40.2 ± 4.0 %. Moreover, the “MA - drop of optical density, %” value in data set [1] (10^−6 M) turned out to be 48.4 ± 2.4%; in data set [1] (10^−7 M) it was 49.8 ± 2.0%.
Consider `Nc1cnc2c(=O)[nH][nH]c(=O)c2n1.[Na]` [Compound 28, sodium salt of 2-amino-pyrazine[2,3-d]-6H-pyridazine-5,8-dione], for which the results for the “MA - fall … % to the standard” value in data set [1] (10^−3 M), in data set [1] (10^−4 M) and in data set [1] (10^−5 M) were 49.7 ± 2.2 %, 48.9 ± 2.4 % and 44.2 ± 2.7 %, respectively. Further, the “MA - drop of optical density, %” value in data set [1] (10^−7 M) was found to be 50.4 ± 3.0%.
For the compound `CN1CC[C@]23c4c5ccc(O)c4O[C@H]2[C@@H](O)C=C[C@H]3[C@H]1C5` [Morphine, reference compound], in data set [3], the “Nitrites, thymus Supernatant, Administration of morphine” value is 0.511 ± 0.05 nmol/mg of protein and the “Thymus mass, Administration of morphine” value is 145 ± 9 mg. Further, in data set [4], the “activity of the calcium-dependent form NOC in the liver” value is reported as “rise of activity of the calcium-dependent form NOC” and the “activity of the calcium-independent form NOC in the liver” value is “decrease of activity of the calcium-independent form NOC”.
With `O=c1[nH]n([C@@H]2O[C@H](CO)[C@@H](O)[C@H]2O)c(=O)c2ccccc12.[Na]` [Compound 9, sodium salt of 2-(β-D-ribofuranosile)benzo[d]-3H-pyridazine-1,4-dione], the “MA - fall … % to the standard” value in data set [1] (10^−3 M) came out at 47.3 ± 2.0 %; in data set [1] (10^−4 M) it was 53.1 ± 1.8 %; in data set [1] (10^−5 M), 41.4 ± 3.4 %. Further, the “MA - drop of optical density, %” value in data set [1] (10^−6 M) was 49.4 ± 3.2%; in data set [1] (10^−7 M), 51.2 ± 1.7%.
Consider `O=c1[nH]n([C@@H]2O[C@H](CO)[C@@H](O)[C@H]2O)c(=O)c2nccc(O)c12.[Na].[Na]` [Compound 4, disodium salt of 4-hydroxy-7-(βD-ribofuranosile)pyrido[2,3-d]-6H-pyridazine-5,8-dione], for which the “MA - fall … % to the standard” value in data set [1] (10^−3 M) was found to be 49.2 ± 2.3 %; in data set [1] (10^−4 M) it was 50.2 ± 2.0 %; in data set [1] (10^−5 M) it was 46.2 ± 3.1 %. In addition, the “MA - drop of optical density, %” value in data set [1] (10^−6 M) is given as 50.6 ± 3.1%; in data set [1] (10^−7 M), 49.9 ± 3.4%.
